Measured values as given in patent US20250134909A1, “GEL COMPOSITION FOR PREVENTION OR TREATMENT OF ATOPIC DERMATITIS” (SHAPERON INC., priority 2021, published 2025).

Test system: atopic dermatitis-induced animal model by DNCB
Assay: Thickness of the epidermis and dermis (H&E), DNCB-induced atopic dermatitis model
Type: in vivo, mice
Settings: 15th day, FIGS. 5 to 7; for dermal thickness: compared to the DNCB group and the normal Sham group; for skin epithelium thickness: compared to the DNCB group
Experimental: […] of a solution of 2,4-Dinitrochlorobenzene (DNCB) dissolved in acetone at a concentration of 1% or 2% was applied to the backs of mice with hair removed twice a day for 2 days, then on the 3rd day, a solution of […] containing 1% concentration of DNCB dissolved in acetone was applied twice daily, and additional applications of a solution of […] containing 1% concentration of DNCB dissolved in acetone or a solution diluted 10 times were applied twice daily on the shaved backs of mice until the 10th to 11th day starting from the day of the initial application of DNCB solution, to induce atopic dermatitis (FIG. 1).
To compare and confirm the therapeutic effects of 0.5% HY209_HA gel and 5% HY209_PEG gel on atopic dermatitis through measurement of the thickness of the epidermis and dermis in the atopic dermatitis-induced animal model of <Example 2>, each individual in the groups treated with 0.5% HY209_HA Gel, 5% HY209_PEG gel, Maxidex ointment, Eucrisa ointment, and Protopic ointment in <Experimental Example 1> had their atopic dermatitis-induced areas scarified on the 15th day from the induction of atopic dermatitis, and the Sham (untreated) group, where atopic dermatitis was not induced, and the DNCB group, which was not treated after the induction of atopic dermatitis, were also scarified on the 15th day.
After collecting skin tissues from each group of mice, the tissue samples were sliced and then fixed in 10% formalin solution for 24 hours, then rinsed with distilled water, processed into paraffin blocks, and sectioned into […] thickness slices, these slices were stained with Hematoxylin and Eosin (H&E), and observed under an optical microscope, and then the thickness of the epithelium and dermis were measured using image analysis software and analyzed using analysis software.

Row | SMILES | dermal thickness | skin epithelium thickness
1 | C=CC[C@@H]1/C=C(\C)C[C@H](C)C[C@H](OC)[C@H]2O[C@@](O)(C(=O)C(=O)N3CCCC[C@H]3C(=O)O[C@H](/C(C)=C/[C@@H]3CC[C@@H](O)[C@H](OC)C3)[C@H](C)[C@@H](O)CC1=O)[C@H](C)C[C@@H]2OC [FK506, Tacrolimus] | recovered close to that of the normal Sham group | significantly reduced
2 | N#Cc1ccc(Oc2ccc3c(c2)COB3O)cc1 [Crisaborole] | recovered close to that of the normal Sham group | significantly reduced
